Data reported in ChEMBL document CHEMBL3758074, “Structure-activity relationship study of 4-(thiazol-5-yl)benzoic acid derivatives as potent protein kinase CK2 inhibitors” (Bioorg Med Chem, 2016).
pIC50: −log10 of the molar value. ≈ marks a conversion by molar mass, not a printed value.

Tests used:
A549 = assay: Cytotoxicity against human A549 cells after 72 hrs by MTS assay; type: functional; details: A549, 72 h
[1] = target: Casein kinase II subunit alpha (Homo sapiens, UniProt P68400); assay: Inhibition of GST-tagged human CK2alpha (1 to 391 residues) using CK2tide as substrate incubated for 1 hr by off-chip mobility shift assay
[2] = Thermodynamic solubility of compound in 67 mM phosphate buffer at pH 7.4 after 24 hrs by HPLC analysis; type: physicochemical; details: read-out: Therm_solubility
[3] = target: Casein kinase II subunit alpha' (Homo sapiens, UniProt P19784); assay: Inhibition of GST-tagged human CK2alpha' (1 to 350 residues) using CK2tide as substrate incubated for 1 hr by off-chip mobility shift assay

Structure (SMILES) | CC50 (A549) | pIC50 [1] | solubility thermodynamic at 24 h [2] | pIC50 [3]
COc1ccc(C(=O)Nc2ncc(-c3ccc(C(=O)O)cc3)s2)cc1 | 8.5 µM | 7.70 | 0.0027 mg/mL (≈ 7.62 µM) | 7.96
COc1ccc(C(=O)Nc2ncc(-c3ccc(C(=O)O)cc3OCc3ccccc3)s2)cc1 | 1.5 µM | – | – | –
COc1ccc(C(=O)Nc2ncc(-c3ccc(C(=O)O)nn3)s2)cc1 | > 30 µM | – | 1.02 mg/mL (≈ 2880 µM) | –
COc1ccc(C(=O)Nc2ncc(-c3ccc(C(=O)O)c4ccccc34)s2)cc1 | > 30 µM | – | – | –
COc1ccc(C(=O)Nc2ncc(-c3ccc(C(=O)O)cc3Oc3ccccc3)s2)cc1 | 4.7 µM | – | – | –
COc1ccc(C(=O)Nc2ncc(-c3ccc(C(=O)O)cc3OCc3ccccn3)s2)cc1 | > 30 µM | – | – | –
COc1ccc(C(=O)Nc2ncc(-c3ccc(C(=O)O)cc3OCc3ccccc3Br)s2)cc1 | 1.5 µM | – | – | –
COc1ccc(C(=O)Nc2ncc(-c3ccc(C(=O)O)cc3OCc3ccccc3OC)s2)cc1 | 2 µM | – | 0.0014 mg/mL (≈ 2.85 µM) | –
COc1ccc(C(=O)Nc2ncc(-c3ccc(C(=O)O)cc3OCc3ccc(Cl)cc3)s2)cc1 | 2.5 µM | – | – | –
COc1ccc(C(=O)Nc2ncc(-c3ccc(C(=O)O)cc3OCc3ccccc3C#N)s2)cc1 | > 30 µM | – | – | –
COc1ccc(C(=O)Nc2ncc(-c3ccc(C(=O)O)cc3OCc3cccc(Cl)c3)s2)cc1 | 18.7 µM | – | – | –
COc1ccc(C(=O)Nc2ncc(-c3ccc(C(=O)O)cc3OCc3ccccc3Cl)s2)cc1 | 1.6 µM | – | – | –
COc1ccc(C(=O)Nc2ncc(-c3ccc(C(=O)O)cn3)s2)cc1 | > 30 µM | – | 0.09 mg/mL (≈ 253 µM) | –
COc1ccc(C(=O)Nc2ncc(-c3ccc(C(=O)O)cc3OCc3ccccc3F)s2)cc1 | 3.3 µM | – | – | –
COc1ccc(C(=O)Nc2ncc(-c3ccc(C(=O)O)cc3OCCc3ccccc3)s2)cc1 | 3.6 µM | – | – | –
COc1ccc(C(=O)Nc2ncc(-c3ccc(C(=O)O)nc3)s2)cc1 | > 30 µM | – | 0.014 mg/mL (≈ 39.4 µM) | –
COc1ccc(C(=O)Nc2ncc(-c3ccc(C(=O)O)cc3COc3ccccc3)s2)cc1 | 21.9 µM | – | – | –
O=C(O)c1ccc2c(c1)nc(Nc1cccc(Cl)c1)c1ccncc12 [SILMITASERTIB] | 9.9 µM | – | 0.057 mg/mL (≈ 163 µM) | –
